Measured values as given in patent US9018214B2, “Bicyclic heterocycle compounds and their uses in therapy” (Astex Therapeutics Limited, priority 2011, dated 2015).
Where a name gives a salt, the structure may show the parent alone. Read-outs that look alike come from different tables or passages of the source.

Columns and labels:
[1] = biological target: BIR3 domain of human cIAP-1 (residues 267-363) (Homo sapiens (Human), UniProt Q13490); assay: cIAP-1 in vitro competitive displacement binding assay (fluorescence polarization; Probe A AVPIK(5&6FAM)-amide or Probe B AbuRPFK(5&6FAM)-amide)
[2] = test system: EVSA-T (human breast carcinoma); assay: Anti-proliferative activity, Alamar Blue assay, EVSA-T; format: cell-based; details: Homo sapiens
[3] = biological target: BIR3 domain of human XIAP (residues 252-350) (Homo sapiens (Human), UniProt P98170); assay: XIAP in vitro competitive displacement binding assay (fluorescence polarization); details: for IC50: read-out: IC50 or PI Xiap: IC50
[4] = read-out: IC50 or PI cIAP1: IC50
[5] = EVSA-T, 72 hours, Alamar Blue, read-out: EVSA-T prolif (EC50)
[6] = EVSA-T, 72 h, read-out: EVSA-T prolif (EC50)
[7] = 3 h, read-out: IC50 or PI cIAP1: PI
[8] = Probe B AbuRPFK(5&6FAM)-amide, read-out: IC50 or PI cIAP1: IC50
[9] = EVSA-T, 72 h, read-out: EC50, inhibition of cell growth
[10] = 3 h, Probe B, @ 0.012 μM, read-out: IC50 or PI cIAP1: PI
[11] = Probe A AVPIK(5&6FAM)-amide, read-out: IC50 or PI cIAP1: IC50

## COC[C@H]1CN[C@H](C)CN1CC(=O)N1CC(C)(C)c2cnc(CC3CCCCC3)cc21 [Example 79, 1-[6-(Cyclohexylmethyl)-3,3-dimethyl-1H,2H,3H-pyrrolo[3,2-c]pyridin-1-yl]-2-[(2R,5R)-2-(methoxymethyl)-5-methylpiperazin-1-yl]ethan-1-one]
[1]; [4]
  IC50: 25 nM
[2]; [5]
  EC50: 490 nM
[3]
  IC50: 1000 nM

## Cc1cnn(C[C@H]2CN[C@H](C)CN2CC(=O)N2CC(C)(C)c3cnc(Cc4ccccc4)cc32)c1 [Example 147, 1-{6-Benzyl-3,3-dimethyl-1H,2H,3H-pyrrolo[3,2-c]pyridin-1-yl}-2-[(2R,5R)-5-methyl-2-[(4-methyl-1H-pyrazol-1-yl)methyl]piperazin-1-yl]ethan-1-one hydrochloride]
[2]; [6]
  EC50: 110 nM
[3]; 1 h, @ 0.04 μM, read-out: IC50 or PI Xiap: PI
  inhibition at 0.04 µM: 49%

## C[C@@H]1CN(CC(=O)N2CC(C)(COCc3ccccc3)c3cnc(Cc4ccccc4)cc32)[C@@H](C(=O)N(C)C)CN1 (stereo partly drawn) [Example 104, (2R,5R)-1-(2-{6-Benzyl-3-[(benzyloxy)methyl]-3-methyl-1H,2H,3H-pyrrolo[3,2-c]pyridin-1-yl}-2-oxoethyl)-N,N,5-trimethylpiperazine-2-carboxamide, hydrochloride salt]
[1]; 3 h, Probe B, @ 0.01 μM, read-out: IC50 or PI cIAP1: PI
  inhibition at 0.01 µM: 71%
[2]; [6]
  EC50: 490 nM

## C[C@@H]1CN(CC(=O)N2CC(C)(C)c3ncc(Cc4ccccc4F)cc32)[C@@H](CN2CC[C@@H](F)C2)CN1 [Example 250, 1-{6-[(2-Fluorophenyl)methyl]-3,3-dimethyl-1H,2H,3H-pyrrolo[3,2-b]pyridin-1-yl}-2-[(2R,5R)-2-{[(3R)-3-fluoropyrrolidin-1-yl]methyl}-5-methylpiperazin-1-yl]ethan-1-one dihydrochloride]
[1]; [7]
  inhibition at […]: 89%
[2]; [6]
  EC50: 16 nM

## CC(C)CC(F)(F)c1cnc2c(c1)N(C(=O)CN1C[C@@H](C)NC[C@@H]1CN1CCCC1=O)CC2(C)C [Example 216, 1-{[(2R,5R)-1-{2-[6-(1,1-Difluoro-3-methylbutyl)-3,3-dimethyl-1H,2H,3H-pyrrolo[3,2-b]pyridin-1-yl]-2-oxoethyl}-5-methylpiperazin-2-yl]methyl}pyrrolidin-2-one dihydrochloride]
[1]; [7]
  inhibition at […]: 68%
[2]; [6]
  EC50: 51 nM

## COC[C@H]1CN[C@H](C)CN1CC(=O)N1C[C@](C)(c2ccccc2)c2ccc(C#N)cc21 [Example 140, (3R)-1-{2-[(2R,5R)-2-(Methoxymethyl)-5-methylpiperazin-1-yl]acetyl}-3-methyl-3-phenyl-2,3-dihydro-1H-indole-6-carbonitrile]
[2]; EVSA-T cell line, 72 hours, Alamar Blue, read-out: EC50, inhibition of cell growth
  EC50: < 10000 nM
[2]; [5]
  EC50: 8600 nM
[3]
  IC50: 94 nM

## COC[C@H]1CN[C@H](C)CN1CC(=O)N1CC(C)(C)c2cc(-c3nc(C)no3)c(Cl)cc21 [Example 141, 1-[6-Chloro-3,3-dimethyl-5-(3-methyl-1,2,4-oxadiazol-5-yl)-2,3-dihydro-1H-indol-1-yl]-2-[(2R,5R)-2-(methoxymethyl)-5-methylpiperazin-1-yl]ethan-1-one]
[1]; [8]
  IC50: 280 nM
[2]; [9]
  EC50: < 10000 nM
[2]; [6]
  EC50: 9000 nM

## CCCC(F)(F)c1cnc2c(c1)N(C(=O)CN1C[C@@H](C)NC[C@@H]1CN1CCOCC1)CC2(C)C [Example 238, 1-[6-(1,1-Difluorobutyl)-3,3-dimethyl-1H,2H,3H-pyrrolo[3,2-b]pyridin-1-yl]-2-[(2R,5R)-5-methyl-2-(morpholin-4-ylmethyl)piperazin-1-yl]ethan-1-one hydrochloride]
[1]; [10]
  inhibition at […]: 69%
[2]; [6]
  EC50: 68 nM

## CCC(F)(F)c1cnc2c(c1)N(C(=O)CN1C[C@@H](C)NC[C@@H]1CN1CCCC1=O)CC2(C)C [Example 190, 1-{[(2R,5R)-1-{2-[6-(1,1-Difluoropropyl)-3,3-dimethyl-1H,2H,3H-pyrrolo[3,2-b]pyridin-1-yl]-2-oxoethyl}-5-methylpiperazin-2-yl]methyl}pyrrolidin-2-one hydrochloride]
[1]; [4]
  IC50: 29 nM
[2]; [6]
  EC50: 400 nM

## C[C@@H]1CN(CC(=O)N2CC(C)(C)c3ncc(C(F)(F)c4ccccc4)cc32)[C@@H](CN2CCCC2=O)CN1 [Example 210, 1-{[(2R,5R)-1-(2-{6-[Difluoro(phenyl)methyl]-3,3-dimethyl-1H,2H,3H-pyrrolo[3,2-b]pyridin-1-yl}-2-oxoethyl)-5-methylpiperazin-2-yl]methyl}pyrrolidin-2-one hydrochloride]
[2]; [6]
  EC50: 54 nM

## C[C@@H]1CN(CC(=O)N2CCc3cnc(Cc4ccccc4)cc32)CCN1 [Example 35, 1-(6-Benzyl-2,3-dihydro-pyrrolo[3,2-c]pyridin-1-yl)-2-((R)-3-methyl-piperazin-1-yl)-ethanone hydrochloride salt]
[1]
  IC50: < 1000 nM
[1]; [11]
  IC50: 960 nM
[2]; EVSA-T, read-out: EVSA-T prolif: % inhibition
  inhibition at 10 µM: 28%

## C[C@@H]1CN(CC(=O)N2CC(C)(C)c3cnc(C(C)(F)F)cc32)[C@@H](CN2CCCC2=O)CN1 [Example 184, dihydrochloride]
[1]
  IC50: < 1000 nM
[1]; [8]
  IC50: 31 nM
[2]; [6]
  EC50: 650 nM

## C[C@@H]1CN(CC(=O)N2CC(C)(C)c3cnc(Cc4ccccc4)cc32)[C@@H](C(=O)N(C)C)CN1 [Example 99, (2R,5R)-1-(2-{6-Benzyl-3,3-dimethyl-1H,2H,3H-pyrrolo[3,2-c]pyridin-1-yl}-2-oxoethyl)-N,N,5-trimethylpiperazine-2-carboxamide, hydrochloride salt]
[1]; [8]
  IC50: 12 nM
[2]; [6]
  EC50: 180 nM

## COC[C@H]1CN[C@H](C)CN1CC(=O)N1CC(C)(C)c2ccc(Cl)cc21 [Example 44, 1-(6-Chloro-3,3-dimethyl-2,3-dihydro-indol-1-yl)-2-((2R,5R)-2-methoxymethyl-5-methyl-piperazin-1-yl)-ethanone hydrochloride salt]
[2]; [6]
  EC50: 6600 nM

## COC[C@H]1CN[C@H](C)CN1CC(=O)N1CC(C)(C)c2cnc(Cc3cccc(C#N)c3)cc21 [Example 80, 3-[(1-{2-[(2R,5R)-2-(Methoxymethyl)-5-methylpiperazin-1-yl]acetyl}-3,3-dimethyl-1H,2H,3H-pyrrolo[3,2-c]pyridin-6-yl)methyl]benzonitrile hydrochloride salt]
[1]; [8]
  IC50: 33 nM
[2]; [6]
  EC50: 780 nM

## COC[C@H]1CN[C@H](C)CN1CC(=O)N1CC(C)(c2ccccc2)c2ccc(C#N)cc21 (mixture of isomers) [Example 136, 1-{2-[(2R,5R)-2-(Methoxymethyl)-5-methylpiperazin-1-yl]acetyl}-3-methyl-3-phenyl-2,3-dihydro-1H-indole-6-carbonitrile]
[2]; [5]
  EC50: 2800 nM
[3]
  IC50: 110 nM

## C[C@@H]1CN(CC(=O)N2CCc3ccc(Cc4ccccc4)cc32)CCN1 [Example 29, 1-(6-Benzyl-2,3-dihydro-indol-1-yl)-2-((R)-3-methyl-piperazin-1-yl)-ethanone hydrochloride salt]
[1]
  IC50: < 10000 nM
[1]; [11]
  IC50: 1400 nM
[2]; [9]
  EC50: < 10000 nM
[2]; [6]
  EC50: 4600 nM

## C[C@@H]1CN(CC(=O)N2CC(C)(C)c3cnc(Cc4ccc(F)cc4F)cc32)[C@@H](CN2CCCC2=O)CN1 [Example 179, 1-{[(2R,5R)-1-(2-{6-[(2,4-Difluorophenyl)methyl]-3,3-dimethyl-1H,2H,3H-pyrrolo[3,2-c]pyridin-1-yl}-2-oxoethyl)-5-methylpiperazin-2-yl]methyl}pyrrolidin-2-one hydrochloride]
[1]; [10]
  inhibition at […]: 97%
[2]; [6]
  EC50: 4.4 nM

## C[C@@H]1CN(CC(=O)N2CC(C)(C)c3ncc(Cc4ccc(F)cc4)cc32)[C@@H](CN2CC[C@@H](F)C2)CN1 [Example 241, 1-{6-[(4-Fluorophenyl)methyl]-3,3-dimethyl-1H,2H,3H-pyrrolo[3,2-b]pyridin-1-yl}-2-[(2R,5R)-2-{[(3R)-3-fluoropyrrolidin-1-yl]methyl}-5-methylpiperazin-1-yl]ethan-1-one dihydrochloride]
[1]; [7]
  inhibition at […]: 98%
[2]; [6]
  EC50: 7.2 nM

## COC[C@H]1CN[C@H](C)CN1CC(=O)N1CC(C)(C)c2cnc(Cc3cccc(OC)c3)cc21 [Example 89, 2-[(2R,5R)-2-(Methoxymethyl)-5-methylpiperazin-1-yl]-1-{6-[(3-methoxyphenyl)methyl]-3,3-dimethyl-1H,2H,3H-pyrrolo[3,2-c]pyridin-1-yl}ethan-1-one, hydrochloride salt]
[1]; [8]
  IC50: 16 nM
[2]; [6]
  EC50: 990 nM

## C[C@@H]1CN(CC(=O)N2CC(C)(C)c3ncc(Cc4ccc(F)cc4)cc32)[C@@H](CN2CCOCC2)CN1 [Example 234, 1-{6-[(4-Fluorophenyl)methyl]-3,3-dimethyl-1H,2H,3H-pyrrolo[3,2-b]pyridin-1-yl}-2-[(2R,5R)-5-methyl-2-(morpholin-4-ylmethyl)piperazin-1-yl]ethan-1-one dihydrochloride]
[2]; [6]
  EC50: 9.6 nM
[3]
  IC50: 74 nM

## C[C@@H]1CN(CC(=O)N2CC(C)(C)c3ncc(Cc4ccc(F)cc4F)cc32)[C@@H](CN2CCCC2=O)CN1 [Example 199, 1-{[(2R,5R)-1-(2-{6-[(2,4-Difluorophenyl)methyl]-3,3-dimethyl-1H,2H,3H-pyrrolo[3,2-b]pyridin-1-yl}-2-oxoethyl)-5-methylpiperazin-2-yl]methyl}pyrrolidin-2-one dihydrochloride]
[2]; [6]
  EC50: 5.6 nM
[3]
  IC50: 63 nM

## COC[C@H]1CN[C@H](C)CN1CC(=O)N1CC(C)(C)c2cnc(C(OC)c3ccccc3)cc21 (stereo partly drawn) [Example 132, 1-{6-[Methoxy(phenyl)methyl]-3,3-dimethyl-1H,2H,3H-pyrrolo[3,2-c]pyridin-1-yl}-2-[(2R,5R)-2-(methoxymethyl)-5-methylpiperazin-1-yl]ethan-1-one dihydrochloride]
[2]; [6]
  EC50: 660 nM
